According to BindingDB's records for doi:10.1016/s0960-894x(03)00389-5 (National Institute On Drug Abuse-Intramural Research Program, 2003):

Key:
[1] = Agonistic activity of quinpirole stimulation of mitogenesis in human Dopamine receptor D3 transfected CHO cells
[2] = Agonistic activity of quinpirole stimulation of mitogenesis in human dopamine D3 transfected CHO cells

| Compound | EC50 [1] [µM] | EC50 [2] [µM] |
| --- | --- | --- |
| O=C(NC/C=C/CN1CCN(c2cccc(Cl)c2Cl)CC1)c1ccccc1 [N-{(E)-4-[4-(2,3-Dichloro-phenyl)-piperazin-1-yl]-but-2-enyl}-benzamide] | > 10 |  |
| O=C(NC/C=C\CN1CCN(c2cccc(Cl)c2Cl)CC1)c1ccccc1 [N-{(Z)-4-[4-(2,3-Dichloro-phenyl)-piperazin-1-yl]-but-2-enyl}-benzamide] |  | > 10 |
